Reference: patent US6268397A, “Use of (α-aminomethyl-3,4-dichlorobenzyl) thioacetamide derivatives for inhibiting dopamine reuptake and new compounds for this use” (Laboratoire. L. Lafon, priority 1995, dated 2001)
pIC50, pKi: −log10 of the molar value. Counter-ions that a name gives are not always drawn. Like-named read-outs stand apart in the source and are kept apart here.

Columns and labels:
[1] = biological target: T1, site of dopamine reuptake (Rattus norvegicus, UniProt P23977); assay: Inhibition of binding at the site of dopamine reuptake in vitro in rat striatum ([3H]mazindol); parameters: species or system rat (male, CD Sprague-Dawley); settings: pH 7.7, mean of three tests
T1 construct: The striata are removed immediately and then stored at -80° C. until used; from tissue; host or cells: rat striatum membranes (male CD Sprague-Dawley)
Description: Inhibition Of Binding At the Site of Dopamine Reuptake In Vitro In Rat Striatum
Rats, (male, CD Sprague-Dawley, 200-250 g) are sacrificed by decapitation. The striata are removed immediately and then stored at -80° C. until used. On the day of the manipulation, the striata are thawed, coated with buffer and then brought into suspension. This suspension is then poured into the centrifuge tubes, made up to 10 ml with pH 7.7 buffer (50 mM Tris (HCl), 120 mM NaCl, 5 mM KCl) and thereafter centrifuged at 20,000 rpm for 15 minutes. The pellet is resuspended in 10 ml of buffer and is then subjected to a second centrifugation (20,000 rpm for 15 minutes). The above procedure is repeated, so that the homogenate undergoes a third centrifugation identical to the previous two. The pellet thereby obtained is suspended in a few ml of buffer and then homogenized. The membrane suspension is then diluted in a requisite volume. Increasing concentrations of the test compounds dissolved in the buffer are distributed. Aliquots of the membrane suspension are then added. The radioactive ligand ([^3 H]mazindol), used as a label of the type of site studied, is then distributed manually in the tubes, which are thereafter incubated (final volume 1 ml).
The reaction is stopped by filtration through a Harvester system (Whatman GF/B filter strip). The filter strip is then washed three times with 5 ml of buffer before being placed in an automatic cutting system.
The cut filters fall into counting vials, and 4 ml of scintillation fluid are distributed automatically by the system. Each sample is subjected to counting of the radioactivity using a liquid scintillation counter.
Three series of tests (test 1, test 2 and test 3) are carried out with each compound for determination of the IC50, each determination being carried out on two different samples.
The specific binding is defined as the difference between the total binding and the non-specific binding (displace by an excess of non-radioactive ligand). The values obtained in counts per minute (cpm) are then converted into disintegrations per minute (dpm) in accordance with the efficiency of the counter.
The IC50 is defined as the concentration of the substance under study needed to displace 50% of the specifically bound radioactive label.
The experimental data emanating from the liquid scintillation counter (Kontron) are stored on diskette, managed by a program (Convert) and then analysed by means of Ligand* software, which calculates the 50% inhibitory concentration (IC50) and the inhibition constant Ki [formula]
where [L] represents the concentration of the radioactive ligand and Kd the dissociation constant of this same ligand. (The values of the IC50 and of Ki are inversely proportional to the affinity of the product under study for the binding site.

[2] = tested on: mice; assay: Toxicity in mice via the i.p. route (LD0, LD100); format: in vivo
From the text: The LD0 and LD100 values in mice via the i.p. route are also given in this table.

[3] = Solubility of the product; format: physicochemical
[4] = tested on: mice; assay: Locomotor activity of mice; format: in vivo, mice (male, NMRI); settings: recorded over 30 minutes
Description: Effects on the Locomotor Activity of Mice
Half an hour after receiving CRL 41 789 or CRL 41 790 intraperitoneally in distilled water, groups of 6 to 24 mice (male, NMRI, C.R.E. Janvier, 18-22 g) are placed individually in crossed-beam activity cages, where their locomotor activity (number of rays crossed) is recorded over 30 minutes.

[5] = tested on: anaesthetized rat striatum; assay: Extracellular levels of neuro-mediators and metabolites in anaesthetized rat striatum (intracerebral microdialysis); format: in vivo, rat (male, Sprague-Dawley CD); settings: doses of 16, 32 or 64 mg/kg i.p.; for 3-methoxytyramine (3MT) concentration in the dialysate / dopamine concentration in the dialysate: hydrochloride
Description: Effect On The Extracellular Levels Of Neuro-Mediators And Metabolites In Anaesthetized Rat Striatum (Intracerebral Microdialysis)
This determination is obtained by high performance liquid chromatography coupled with and electro-chemical detection.
HPLC: Spherisorb cartridge, ODS-2 (5 μm), L=[…], =4 mm, Merck. Mobile phase: 0.1 M potassium phosphate, 0.1 M citric acid, octane-sulphonic acid 50 mg/l, 0.1 mM EDTA, 4% methanol, ph 4.80 , pump output 0.9 ml/min
electrochemical detection: BAS detector, LC-4C, +750 mV
analyser: Millenium, Waters
Rats (male, Sprague-Dawley CD, Charles River, 280-300 g) anaesthetized with chloral hydrate (400 mg/kg, i.p.) are placed in a stereotactic apparatus. The micro-dialysis probe (CMA/11 L=3 mm, =0.24 mm, Carnegie) is implanted according to the coordinates of the Paxinos and Watson atlas in the anterior portion of the left striatum: I=10, L=2.4, H=-6.1.
Ringer's fluid (CaCl2 =2.4 mM, KCl=4 mM, NaCl=147 mM) is perfused at 2 μl/min into the probe. The dialysates collected every 20 minutes are cooled (to approximately 6° C.) and then analysed.
After one hour of collection, groups of 6 rats receive intraperitoneally in a volume of 5 ml/kg:
either an injection of isotonic sodium chloride solution,
or the test compound dissolved in distilled water at doses of 16, 32 or 64 mg/kg.
In the dialysate, the dopamine (DA), 3,4-dihydroxyphenylacetic acid (DOPAC), homovanillic acid (HVA) and 3-methoxytyramine (3MT) concentrations are measured by electrochemical detection and quantified with respect to a standard series, and are corrected in accordance with the efficiency of the probe determined in vitro before each test.
Only tests in which the probes display an efficiency of more than 5% are taken into account.

[6] = tested on: rats; assay: Induction of stereotyped movements in rats; format: in vivo, rat (male, CD, Sprague-Dawley); settings: i.p.
Description: Induction of Stereotyped Movements in Rats
Groups of 6 rats (male, CD, Sprague-Dawley, Charles River, 160-200 g) receive CRL 41 789 or CRL 41 790 intraperitoneally in distilled water (5 ml/kg), and are immediately place in Flexiglas cages (20×10×10cm). The stereotyped movements are scored from 0 to 3 every 10 minutes until they have disappeared.

[7] = tested on: mice; assay: Test of "behavioural despair" in mice; format: in vivo, mice (male, CD1)
From the text: Effects on the Test of "Behavioural Despair"in Mice
Half an hour after receiving CRL 41 789 or CRL 41 790 intraperitoneally in distilled water, groups of 6 or 12 mice (male, CD1, Charles River, 18-22 g) are placed individually in a high vessel made of transparent glass, filled with water to a height of 6 cm. The total period of immobility between the beginning of the 3rd minute and the end of the 6th minute following immersion of the animal is noted.

[8] = Inhibition of binding at the site of dopamine reuptake IC50, rat striatum
[9] = Inhibition of binding at the site of dopamine reuptake Ki, rat striatum
[10] = rat striatum, read-out: Inhibition of binding at the site of dopamine reuptake IC50
[11] = rat striatum, read-out: Inhibition of binding at the site of dopamine reuptake Ki

T1 sequence (P23977 whole entry): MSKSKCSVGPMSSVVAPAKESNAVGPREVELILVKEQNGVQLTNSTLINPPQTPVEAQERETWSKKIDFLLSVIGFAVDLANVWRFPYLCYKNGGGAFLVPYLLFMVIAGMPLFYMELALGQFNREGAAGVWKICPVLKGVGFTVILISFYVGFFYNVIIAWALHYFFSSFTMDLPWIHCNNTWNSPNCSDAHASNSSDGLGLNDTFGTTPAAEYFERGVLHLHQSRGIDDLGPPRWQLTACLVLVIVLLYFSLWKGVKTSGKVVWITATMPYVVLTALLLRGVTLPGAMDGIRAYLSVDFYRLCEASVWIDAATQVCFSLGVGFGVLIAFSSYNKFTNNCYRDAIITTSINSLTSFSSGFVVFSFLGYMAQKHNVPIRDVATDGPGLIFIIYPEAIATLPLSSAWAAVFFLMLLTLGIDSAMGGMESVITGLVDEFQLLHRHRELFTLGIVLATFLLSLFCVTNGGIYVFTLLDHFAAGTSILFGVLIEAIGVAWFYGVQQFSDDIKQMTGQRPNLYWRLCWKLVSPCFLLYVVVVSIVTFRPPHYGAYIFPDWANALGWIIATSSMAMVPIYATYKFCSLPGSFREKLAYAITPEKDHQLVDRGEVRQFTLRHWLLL

`CCC(C)(C)NCC(SCC(N)=O)c1ccc(Cl)c(Cl)c1` (stereo not drawn) [CRL 42 059, [α-(tert-amylaminomethyl)-3,4-dichlorobenzyl]thioacetamide hydrochloride] gave a pIC50 [1, 8] of 7.13, a pKi [1, 9] of 7.34 and an LD0 [2] of 30 mg/kg. The LD100 [2] was 256 mg/kg, the solubility in alcohols ([3]; alcohols) was “soluble” and the solubility in ether [3] was “insoluble”. For the same compound, the “solubility in ethyl acetate” value [3] was “insoluble” and the solubility in water [3] was “soluble”.
With `CC(C)(C)NCC(SCC(N)=O)c1ccc(Cl)c(Cl)c1` (racemic) [CRL 41 414, [α-(tert-butylaminomethyl)-3,4-dichlorobenzyl]thioacetamide] the pIC50 [1, 8] was 7.51, the pKi [1, 9] was 7.20 and the LD0 [2] was 128 mg/kg. The LD100 [2] was 256 mg/kg.
Work on `NC(=O)CSC(CNC12CC3CC(CC(C3)C1)C2)c1ccc(Cl)c(Cl)c1` (stereo not drawn) [CRL 42 060, [α-(1-adamantylaminomethyl)-3,4-dichlorobenzyl]thioacetamide hemifumarate] yielded a pIC50 [1, 8] of 7.40, a pKi [1, 9] of 7.36 and an LD0 [2] of 128 mg/kg. For the same compound, the LD100 [2] was 1024 mg/kg, the “solubility in DMSO” value ([3]; DMSO) was “soluble” and the solubility in ether [3] was “insoluble”. The “solubility in ethyl acetate” value [3] was “insoluble”, the solubility in methanol [3] was “soluble” and the solubility in water [3] was “insoluble”.
`CC(C)(C)NCC(SCC(N)=O)c1ccc(Cl)c(Cl)c1` (single isomer, unassigned) [CRL 41 789, 1(-)-[α-(tert-butylaminomethyl)-3,4-dichlorobenzyl]thioacetamide hydrochloride] gave a pIC50 [1, 10] of 7.36, a pKi [1, 11] of 7.62 and an LD0 ([2]; hydrochloride) of 64 mg/kg. The LD100 ([2]; hydrochloride) was 256 mg/kg, the locomotor activity ([4]; i.p., 2, 8 and 32 mg/kg) was “marked and statistically significant increase in the locomotor activity of the mice is observed, the increase rising with the dose” and the “DOPAC concentration in the dialysate” value [5] was “without modification”. For the same compound, the “HVA concentration in the dialysate” value [5] was “without modification”, the “3-methoxytyramine (3MT) concentration in the dialysate” value [5] was “significant increase” and the “dopamine concentration in the dialysate” value [5] was “significant increase”. The solubility in ethanol [3] was “soluble”, the solubility in ether [3] was “insoluble” and the “solubility in ethyl acetate” value [3] was “insoluble”. The solubility in water [3] was “soluble”, the stereotyped movements ([6]; 16 and 32 mg/kg) was “appearance of intense and lasting stereotyped movements” and the period of immobility ([7]; i.p., 0.5, 2, 8 and 32 mg/kg) was “a decrease in the period of immobility is observed, the decrease rising with the dose”. The “period of immobility, significance of the effect” value ([7]; i.p., 8 and 32 mg/kg) was “marked and statistically significant”.
With `CC(C)(C)NCC(SCC(N)=O)c1ccc(Cl)c(Cl)c1` (single isomer, unassigned) [CRL 41 790, d(+)-[α-(tert-butylaminomethyl)-3,4-dichlorobenzyl]thioacetamide hydrochloride] the pIC50 [1, 10] was 5.96, the pKi [1, 11] was 6.21 and the LD0 ([2]; hydrochloride) was 128 mg/kg. For the same compound, the LD100 ([2]; hydrochloride) was 512 mg/kg, the locomotor activity ([4]; i.p., even at 64 mg/kg) was “does not give rise to any increase in the locomotor activity” and the “3-methoxytyramine (3MT) concentration in the dialysate” value [5] was “does not cause any modification”. For the same compound, the “dopamine concentration in the dialysate” value [5] was “does not cause any modification”, the solubility in ethanol [3] was “soluble” and the solubility in ether [3] was “insoluble”. For the same compound, the “solubility in ethyl acetate” value [3] was “insoluble”, the solubility in methanol [3] was “soluble” and the solubility in water [3] was “soluble”. For the same compound, the stereotyped movements ([6]; even at the high dose of 128 mg/kg) was “does not cause the appearance of any stereotyped movement” and the period of immobility ([7]; i.p., even at the high dose of 64 mg/kg) was “does not give rise to any decrease in the period of immobility”.
